Patent publication US20030083336A1, “Phenylpiperazinyl derivatives” (H. Lundbeck A/S, priority 1999, published 2003)
pIC50: −log10 of the molar value. Where a name gives a salt, the structure may show the parent alone.

Tests used:
[1] = target: T1, human cloned dopamine D4.2 receptors (Homo sapiens, UniProt P21917, DEL265-296); experiment: Inhibition of the binding of 3H-YM-09151-2 to human dopamine D4 receptors; conditions: [3H]YM-09151-2 0.06 nM; for pIC50: membranes of CHO-cells, read-out: D4-bind. IC50; for inhibition at 0.05 µM: test compound at 50 nM, read-out: D4-bind. % inhibition of binding at 50 nM
T1 construct: expressed in transfected cells; host or cells: CHO cells
T1 sequence (P21917 with tags, fused parts or gaps DEL265-296): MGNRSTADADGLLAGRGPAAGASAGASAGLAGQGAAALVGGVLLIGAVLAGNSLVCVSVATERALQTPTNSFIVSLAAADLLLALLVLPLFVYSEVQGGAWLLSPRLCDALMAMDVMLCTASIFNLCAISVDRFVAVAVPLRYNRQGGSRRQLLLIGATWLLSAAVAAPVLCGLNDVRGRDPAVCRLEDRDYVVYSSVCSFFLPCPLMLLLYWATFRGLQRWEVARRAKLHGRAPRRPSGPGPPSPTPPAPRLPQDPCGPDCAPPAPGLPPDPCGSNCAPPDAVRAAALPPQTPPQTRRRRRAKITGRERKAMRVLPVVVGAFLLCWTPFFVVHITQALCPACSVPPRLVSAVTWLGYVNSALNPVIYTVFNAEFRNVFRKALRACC
Description: Inhibition of the Binding of ^3H-YM-09151-2 to Human Dopamine D4 Receptors
By this method the inhibition by drugs of the binding of [^3H]YM-09151-2 (0.06 nM) to membranes of human cloned dopamine D4.2 receptors expressed in CHO-cells is determined in vitro. Method modified from NEN Life Science Products, Inc., technical data certificate PC2533-10/96. The results are given in the following Table 1 as IC50-values or as percent inhibition of the binding of ^3H-YM-09151 -2 at the concentration of the test compound indicated.

[2] = target: T2, human cloned dopamine D3 receptors (Homo sapiens, UniProt P35462); experiment: Inhibition of the binding of [3H]-Spiperone to human D3 receptors; conditions: [3H]Spiperone 0.3 nM; for pIC50: membranes of CHO-cells, read-out: D3-bind. IC50; for inhibition at 0.05 µM: test compound at 50 nM, read-out: D3-bind. % inhibition of binding at 50 nM
T2 construct: expressed in transfected cells; host or cells: CHO cells
Description: Inhibition of the Binding of [^3H]-Spiperone to Human D3 Receptors
By this method the inhibition by drugs of the binding [^3H]Spiperone (0.3 nM) to membranes of human cloned dopamine D3 receptors expressed in CHO-cells is determined in vitro. Method modified from R. G. MacKenzie et al. Eur. J. Pharm.-Mol. Pharm. Sec. 1994, 266, 79-85. The results are given in the following Table 1 as IC50-values or as percent inhibition of the binding of ^3H-Spiperone at the concentration of the test compound indicated.

T2 sequence (P35462 whole entry): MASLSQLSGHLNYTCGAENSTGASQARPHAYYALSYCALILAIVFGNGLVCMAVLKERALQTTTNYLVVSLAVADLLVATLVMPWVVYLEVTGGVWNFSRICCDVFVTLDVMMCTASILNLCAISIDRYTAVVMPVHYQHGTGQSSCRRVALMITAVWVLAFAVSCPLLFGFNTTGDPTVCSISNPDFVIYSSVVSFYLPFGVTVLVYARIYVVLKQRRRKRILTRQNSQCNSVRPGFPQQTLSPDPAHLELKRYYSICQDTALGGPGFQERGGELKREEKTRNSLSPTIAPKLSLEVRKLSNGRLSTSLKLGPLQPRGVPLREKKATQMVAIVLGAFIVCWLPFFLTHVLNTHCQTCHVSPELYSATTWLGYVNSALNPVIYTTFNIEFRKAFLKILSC

Row | SMILES | melting point [°C] | pIC50 [1] | pIC50 [2] | inhibition at 0.05 µM [1] [%] | inhibition at 0.05 µM [2] [%]
1 | Cc1c(N2CCOCC2)cccc1N1CCN(CCCc2c[nH]c3ccc(F)cc23)CC1 (as salt: HCl) [Compound 1d, 1-[2-methyl-3-(morpholin-4-yl)phenyl]-4-[3-(5-fluoro-1H-indol-3-yl)propyl]piperazine] | 212 to 215 |  |  |  | 
2 | Cc1c(N2CCOCC2)cccc1N1CCN(CCCc2c[nH]c3ccccc23)CC1 (hydrate or solvate) [Compound 1b, 1-[3-(1H-Indol-3-yl)propyl]-4-[2-methyl-3-(morpholin-4-yl)-phenyl]piperazine] | 112 to 113 |  |  |  | 
3 | Cc1c(Oc2cccc(N(C)C)c2)cccc1N1CCN(CCCc2c[nH]c3ccccc23)CC1 [Compound 1a] |  | 7.32 | 7.59 |  | 
4 | Cc1c(N2CCOCC2)cccc1N1CCN(CCCc2c[nH]c3ccccc23)CC1 [Compound 1b, 1-[3-(1H-Indol-3-yl)propyl]-4-[2-methyl-3-(morpholin-4-yl)-phenyl]piperazine] |  | 8.23 | 6.66 |  | 
5 | CCN(CC)c1cccc(Oc2cccc(N3CCN(CCCc4c[nH]c5ccc(F)cc45)CC3)c2C)c1 [Compound 2a] |  | 8.27 | 8.00 |  | 
6 | Cc1c(N2CCOCC2)cccc1N1CCCN(CCCc2c[nH]c3ccc(F)cc23)CC1 [Compound 2aa, 1-[3-(Morpholin-4-yl)-2-methylphenyl]-4-[3-(5-fluoro-1H-indol-3-yl)propyl]-1,4-diazepane] |  |  |  | 53 | 40
7 | CCN(CC)c1cccc(Oc2cccc(N3CCN(CCCCc4c[nH]c5ccc(Cl)cc45)CC3)c2C)c1 [Compound 2ab, 1-{3-[3-(Diethylamino)phenoxy]-2-methylphenyl}-4-[4-(5-chloro-1H-indol-3-yl)butyl]piperazine] |  |  |  | 53 | 83
8 | COc1cc(Oc2cccc(N3CCN(CCCc4c[nH]c5ccc(F)cc45)CC3)c2C)cc(OC)c1OC [Compound 2b, 1-[2-Methyl-3-(3,4,5-trimethoxyphenoxy)phenyl]-4-[3-(5-fluoro-1H-indol-3-yl)propyl]piperazine] |  |  | 8.17 | 98 | 
9 | CCN(CC)c1cccc(Oc2cccc(N3CCN(CCCc4c[nH]c5ccc(Cl)cc45)CC3)c2C)c1 [Compound 2c, 1-{3-[3-(Diethylamino)phenox]-2-methylphenyl}-4-[3-(5-chloro-1H-indol-3-yl)propyl]piperazine] |  | 8.26 | 7.89 |  | 
10 | CCN(CC)c1cccc(Oc2cccc(N3CCN(CCCc4c[nH]c5c(F)cc(F)cc45)CC3)c2C)c1 [Compound 2d, 1-{3-[3-(Diethylamino)phenoxy]-2-methylphenyl}-4-[3-(5,7-difluoro-1H-indol-3-yl)propyl]piperazine] |  | 7.92 |  |  | 70
11 | COc1cc(Oc2cccc(N3CCN(CCCc4c[nH]c5ccc(Cl)cc45)CC3)c2C)cc(OC)c1OC [Compound 2e, 1-[2-Methyl-3-(3,4,5-trimethoxyphenoxy)phenyl}-4-[3-(5-chloro-1H-indol-3-yl)propyl]piperazine] |  | 8.00 |  |  | 71
12 | CCN(CC)c1cccc(Oc2cccc(N3CCN(CCCc4c[nH]c5ccccc45)CC3)c2C)c1 [Compound 2f, 1-{3-[3-(Diethylamino)phenoxy]-2-methylphenyl}-4-[3-(1H-indol-3-yl)propyl]piperazine] |  | 7.46 |  |  | 70
13 | Cc1c(N2CCCN(CCCc3c[nH]c4ccc(F)cc34)CC2)cccc1N1CC(C)OC(C)C1 (stereo not drawn) [Compound 2g, 1-[3-(2,6-Dimethylmorpholin-4-yl)-2-methylphenyl]-4-[3-(5-fluoro-1H-indol-3-yl)propyl]-1,4-diazepan] |  | 7.59 |  |  | 65
14 | Cc1c(Oc2cccc(N(C)C)c2)cccc1N1CCN(CCCc2c[nH]c3ccc(F)cc23)CC1 [Compound 2h, 1-{3-[3-(Dimethylamino)phenoxy]-2-methylphenyl}-4-[3-(5-fluoro-1H-indol-3-yl)propyl]piperazine] |  | 7.43 |  |  | 77
15 | Cc1c(Oc2ccc3c(c2)OCO3)cccc1N1CCN(CCCc2c[nH]c3ccccc23)CC1 [Compound 2i, 1-[3-(1,3-Benzodioxolan-5-yloxy)-2-methylphenyl]-4-[3-(1H-indol-3-yl)propyl]piperazine] |  | 7.46 |  |  | 54
16 | Cc1c(N2CCN(CCCc3c[nH]c4ccc(F)cc34)CC2)cccc1N1CC(C)OC(C)C1 (stereo not drawn) [Compound 2j, 1-[3-(2,6-Dimethylmorpholin-4-yl)-2-methylphenyl]-4-[3-(5-fluoro-1H-indol-3-yl)propyl]piperazine] |  | 7.44 |  |  | 57
17 | CCN(CC)c1cccc(Oc2cccc(N3CCN(CCCCc4c[nH]c5ccc(F)cc45)CC3)c2C)c1 [Compound 2k, 1-{3-[3-(Diethylamino)phenoxy]-2-methylphenyl}-4-[4-(5-fluoro-1H-indol-3-yl)butyl]piperazine] |  | 7.40 |  |  | 96
18 | Cc1c(N2CCOCC2)cccc1N1CCN(CCCc2c[nH]c3ccc(Cl)cc23)CC1 [Compound 2l, 1-[3-(Morpholin-4-yl)-2-methylphenyl]-4-[3-(5-chloro-1H-indol-3-yl)propyl]piperazine] |  | 7.52 |  |  | 40
19 | Cc1c(Oc2cccc(N(C)C)c2)cccc1N1CCN(CCCc2c[nH]c3ccc(Cl)cc23)CC1 [Compound 2m] |  | 7.24 |  |  | 74
20 | Cc1c(N2CCN(CCCc3c[nH]c4ccccc34)CC2)cccc1N1CCC[C@H]1CO [Compound 2o, (S)-1-[3-(2-Hydroxymethylpyrrolidin-1-yl)-2-methylphenyl]-4-[3-(1H-indol-3-yl)propyl]piperazine] |  | 7.28 |  |  | 19
21 | Cc1c(N2CCN(CCCc3c[nH]c4ccc(F)cc34)CC2)cccc1N1CCC[C@H]1CO [Compound 2p, (S)-1-[3-(2-Hydroxymethylpyrrolidin-1-yl)-2-methylphenyl]-4-[3-(5-fluoro-1H-indol-3-yl)propyl]piperazine] |  |  |  | 67 | 54
22 | Cc1c(Oc2ccc3c(c2)OCO3)cccc1N1CCN(CCCc2c[nH]c3ccc(F)cc23)CC1 [Compound 2q, 1-[3-(1,3-Benzodioxolan-5-yloxy)-2-methylphenyl]-4-[3-(5-fluoro-1H-indol-3-yl)propyl]piperazine] |  | 7.37 |  |  | 61
23 | Cc1c(Oc2cccc(N(C)C)c2)cccc1N1CCN(CCCCc2c[nH]c3c(F)cc(F)cc23)CC1 [Compound 2r, 1-{3-[3-(Dimethylamino)phenoxy]-2-methylphenyl}-4-[4-(5,7-difluoro-1H-indol-3-yl)butyl]piperazine] |  | 7.21 |  |  | 90
24 | Cc1c(N2CCN(CCCc3c[nH]c4c(F)cc(F)cc34)CC2)cccc1N1CCC[C@H]1CO [Compound 2s, (S)-1-[3-(2-Hydroxymethylpyrrolidin-1-yl)-2-methylphenyl]-4-[3-(5,7-difluoro-1H-indol-3-yl)propyl]piperazine] |  | 7.39 |  |  | 36
25 | Cc1c(Oc2ccc3c(c2)OCO3)cccc1N1CCN(CCCc2c[nH]c3c(F)cc(F)cc23)CC1 [Compound 2t, 1-[3-(1,3-Benzodioxolan-5-yloxy)-2-methylphenyl]-4-[3-(5,7-difluoro-1H-indol-3-yl)propyl]piperazine] |  | 7.33 |  |  | 54
26 | Cc1c(N2CCN(CCCc3c[nH]c4c(F)cc(F)cc34)CC2)cccc1N1CC(C)OC(C)C1 (stereo not drawn) [Compound 2w, 1-[3-(2,6-Dimethylmorpholin-4-yl)-2-methylphenyl]-4-[3-(5,7-difluoro-1H-indol-3-yl)propyl]piperazine] |  | 7.47 |  |  | 43
27 | CCN(CC)c1cccc(Oc2cccc(N3CCCN(CCCc4c[nH]c5c(F)cc(F)cc45)CC3)c2C)c1 [Compound 2x, 1-{3-[3-(Diethylamino)phenoxy]-2-methylphenyl}-4-[3-(5,7-difluoro-1H-indol-3-yl)propyl]-1,4-diazepane] |  | 7.12 |  |  | 66
28 | Cc1c(Oc2cccc(N(C)C)c2)cccc1N1CCN(CCCc2c[nH]c3c(F)cc(F)cc23)CC1 [Compound 2z, 1-{3-[3-(Dimethylamino)phenoxy]-2-methylphenyl}-4-[3-(5,7-difluoro-1H-indol-3-yl)propyl]piperazine] |  | 7.49 |  |  | 59
